# Source: patent publication US20060079453A1, “Hla binding peptides and their uses” (priority 2002, published 2006)
# Like-named read-outs stand apart in the source and are kept apart here. No end group written: not given here.
# Assays:
# Test in all cases: biochemical
# Format in all cases: binding
# HLA-B*4403 = HLA-B*4403 (Homo sapiens, UniProt P01889, A223V/A65T/A93T/A95T/D201E/D98Y/E176V/E187L/E204Q/E69K/G107R/H137Y/K202T/L105A/L119I/N104T/N87E/Q56L/Q94N/R106L/R155S/R180L/S101N/S121R/S35A/S48T/T118I/V36M/W191S/Y140D/Y91S)
# HLA-B*4002 = HLA-B*4002 (Homo sapiens, UniProt P01889, A65T/A93T/A95T/D138N/D201E/D98Y/E176V/E204Q/E69K/K202T/N87E/Q56L/Q94N/R180L/S48T/Y33H/Y91S)
# HLA-B*4501 = HLA-B*4501 (Homo sapiens, UniProt P01889, A329T/A65T/A93T/A95T/C349S/D138N/D201E/D98Y/E176V/E187L/E204Q/E69K/H137Y/K202T/L119W/N87E/Q56L/Q94N/R155S/R180D/S121R/S35A/S48T/V127L/V306I/V36M/W191S/Y140L/Y33H/Y91S)
# HLA-B*1801 = HLA-B*1801 (Homo sapiens, UniProt P01889, A329T/A93T/A95T/C349S/D201E/D54G/D98Y/E176V/E187T/E204Q/E69T/K202T/Q94N/R155S/R180L/S121R/V306I/Y140S/Y195H/Y33H/Y91S)
# HLA-B*4402 = HLA-B*4402 (Homo sapiens, UniProt P01889, A223V/A65T/A93T/A95T/D201E/D98Y/E176V/E187L/E204Q/E69K/G107R/H137Y/K202T/L105A/L119I/N104T/N87E/Q56L/Q94N/R106L/R155S/R180D/S101N/S121R/S35A/S48T/T118I/V36M/W191S/Y140D/Y91S)
# HLA-B*4001 = HLA-B*4001 (Homo sapiens, UniProt P01889, A65T/A93T/A95T/D138N/D98Y/E176V/E69K/N87E/Q56L/Q94N/R180L/S121R/S35A/S48T/T167S/V36M/W171L/Y33H/Y91S)
# HLA-DR DRB1*0802 (DR8) = HLA-DR DRB1*0802 (DR8) (Homo sapiens, UniProt P01903+P01911, A100R/A103L/A169T/F76Y/H45Y/I96F/K41T/L162R/M171V/P40S/Q125H/Q178H/Q39Y/Q99D/R218S/R42G/S66Y/V115G/W38E)
# HLA-DR DRB1*1302 (DR13) = HLA-DR DRB1*1302 (DR13) (Homo sapiens, UniProt P01903+P01911, A100E/A169T/K41T/L162R/M171V/P40S/Q125H/Q178H/Q39Y/Q99D/R42S/S66N/T262R/V115G/W38E/Y61H); conditions: DRBI *1302
# HLA-DR DRB3*0101 (DR52) = HLA-DR DRB3*0101 (DR52) (Homo sapiens, UniProt P01903+P79483)
# HLA-DR DRB1*0701 (DR7) = HLA-DR DRB1*0701 (DR7) (Homo sapiens, UniProt P01903+P01911, A100R/A102G/A103Q/D57E/D86V/E43K/F76Y/K127E/L162R/M171V/P40G/Q125H/Q99D/R33Q/R42Y/R54Q/S133A/S66F/T210M/V115G/Y107V/Y59L/Y89S); conditions: DRB1 *0701
# HLA-DR DRB1*1101 (DR11) = HLA-DR DRB1*1101 (DR11) (Homo sapiens, UniProt P01903+P01911, A100R/A169T/A87E/I96F/K41T/L162R/M171V/P40S/Q125H/Q178H/Q39Y/Q99D/R42S/S66Y/T262R/V115G/W38E); conditions: DRB1 *1101
# HLA-DR DRB1*0405 (DR4) = HLA-DR DRB1*0405 (DR4) (Homo sapiens, UniProt P01903+P01911, A100R/A169T/D86S/F76Y/I96L/K127E/L162R/M171V/N62H/P40V/Q125Y/R42H/S133A/S149N/S66Y/V115G/V209L/W38E); conditions: DRB1 *0405
# HLA-DR DRB1*0301 (DR3) = HLA-DR DRB1*0301 (DR3) (Homo sapiens, UniProt P01903+P01911, A100K/A102G/A103R/A169T/F55Y/I96L/K41T/L162R/M171V/P40S/Q125H/Q178H/Q39Y/R42S/S66N/T106N/T262R/W38E/Y61H)
# HLA-DR DRB1*0401 (DR4) = HLA-DR DRB1*0401 (DR4) (Homo sapiens, UniProt P01903+P01911, A100K/A169T/F76Y/I96L/K127E/L162R/M171V/N62H/P40V/Q125Y/R42H/S133A/S149N/S66Y/V115G/V209L/W38E); conditions: DRB1 *0401
# HLA-DR DRB1*0901 (DR9) = HLA-DR DRB1*0901 (DR9) (Homo sapiens, UniProt P01903+P01911, A100R/A103E/D57H/D86V/F55Y/F60I/F76Y/I96F/K127E/L162R/M171V/P40D/Q125H/Q99R/R33Q/R42F/S133A/S66N/T210M/V115G/W38K/Y107V/Y59G/Y89S); conditions: DRB1 *0901
# HLA-DR DRB5*0101 (DR51) = HLA-DR DRB5*0101 (DR51) (Homo sapiens, UniProt P01903+Q30154); conditions: DRB5 *0101
# HLA-DR DRB1*0101 (DR1) = HLA-DR DRB1*0101 (DR1) (Homo sapiens, UniProt P01903+P01911, A100R/D57E/F55L/F60I/F76Y/I96L/L162R/M171V/P40L/Q125E/R42F/V115G/Y59C); conditions: DRB1 *0101
# HLA-DR DRB1*1501 (DR15) = HLA-DR DRB1*1501 (DR15) (Homo sapiens, UniProt P01903+P01911); conditions: DRBI *1501
# Sequence of HLA-DR DRB1*1302 (DR13) (P01903 26-254 limits assumed, other chains not shown): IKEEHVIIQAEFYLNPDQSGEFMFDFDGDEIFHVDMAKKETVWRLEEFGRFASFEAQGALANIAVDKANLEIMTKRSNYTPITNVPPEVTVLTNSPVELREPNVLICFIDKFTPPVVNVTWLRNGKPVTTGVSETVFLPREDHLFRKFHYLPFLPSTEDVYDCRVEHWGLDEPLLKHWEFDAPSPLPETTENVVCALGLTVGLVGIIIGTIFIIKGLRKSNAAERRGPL
# Sequence of HLA-DR DRB1*0301 (DR3) (P01903 26-254 limits assumed, other chains not shown): as above
# Sequence of HLA-DR DRB1*1101 (DR11) (P01903 26-254 limits assumed, other chains not shown): as above
Compound,IC50 (HLA-B*4403) [µM],IC50 (HLA-B*1801) [µM],IC50 (HLA-B*4402) [µM],IC50 (HLA-B*4001) [µM],IC50 (HLA-B*4002) [µM],IC50 (HLA-B*4501) [µM],other results
CC[C@H](C)[C@H](NC(=O)[C@@H](NC(=O)[C@H](CS)NC(=O)[C@@H](NC(=O)[C@@H]1CCCN1C(=O)[C@@H]1CCCN1C(=O)[C@H](CCC(N)=O)NC(=O)[C@@H]1CCCN1C(=O)[C@H](CC(C)C)NC(=O)[C@H](CCCNC(=N)N)NC(=O)[C@H](CCC(=O)O)NC(=O)CN)[C@@H](C)CC)[C@@H](C)O)C(=O)O,,,,,,,IC50 (HLA-B*4403; B*4403): 0.0025 µM; IC50 (HLA-B*4002; B*4002): 0.0039 µM
AEGIVTGQY,,,,,,,IC50 (HLA-B*4501; B*4501): 0.418 µM; IC50 (HLA-B*4403; B*4403): 0.012 µM; IC50 (HLA-B*1801; B*1801): 7.18 µM; IC50 (HLA-B*4402; B*4402): 0.255 µM; IC50 (HLA-B*4001; B*4001): 6.46 µM
AEIPTRVNY,,,,,,,IC50 (HLA-B*4403; B*4403): 0.023 µM; IC50 (HLA-B*1801; B*1801): 1.69 µM; IC50 (HLA-B*4001; B*4001): 7.83 µM; IC50 (HLA-B*4002; B*4002): 5.44 µM
AEMGKFKYSF,,,,,,,IC50 (HLA-B*4403; B*4403): 0.031 µM; IC50 (HLA-B*1801; B*1801): 0.155 µM; IC50 (HLA-B*4402; B*4402): 0.018 µM; IC50 (HLA-B*4002; B*4002): 0.0038 µM
AEMGKGSFKY,,,,,,,IC50 (HLA-B*4501; B*4501): 0.305 µM; IC50 (HLA-B*4403; B*4403): 0.09 µM; IC50 (HLA-B*1801; B*1801): 1.62 µM; IC50 (HLA-B*4001; B*4001): 6.43 µM; IC50 (HLA-B*4002; B*4002): 3.82 µM
AENDWVTVY,0.165,0.324,0.096,0.954,,,
AENLDVTVY,0.34,,0.673,0.22,12.1,,
AENLKVTVY,0.487,0.138,0.253,7.75,,9.62,
AENLTVTVY,0.208,,0.327,0.689,,0.793,
AENLVVTVY,0.203,0.062,,0.876,1.34,0.718,
AENLWDTVY,0.068,0.775,,1.14,2.09,,
AENLWFTVY,0.062,0.36,,0.699,0.668,0.09,
AENLWKTVY,0.383,0.913,,0.85,0.406,,
AENLWLTVY,0.226,0.666,0.647,1.7,0.884,,
AENLWNTVY,0.081,0.336,0.066,1.34,0.957,,
AENLWTTVY,0.05,,0.051,0.246,,,
AENLWVDVY,0.092,0.415,0.334,0.7,3.44,,
AENLWVFVY,0.31,,0.348,0.857,,,
AENLWVNVY,0.076,,0.159,,,0.266,
AENLWVTNY,0.074,0.73,,0.865,0.948,,

Compound,IC50 (HLA-B*4403) [µM],IC50 (HLA-B*1801) [µM],IC50 (HLA-B*4402) [µM],IC50 (HLA-B*4001) [µM],IC50 (HLA-B*4002) [µM],IC50 (HLA-B*4501) [µM],other results
AENLWVTPY,0.044,0.041,0.127,0.274,,0.122,
AENLWVTVI,0.088,11.2,,0.014,0.0073,0.054,
AENLWVTVL,0.208,6.2,0.068,0.014,0.013,,
AENLWVTVR,1.47,33,,,1.74,0.233,
AENLWVTVV,,10.7,5.76,0.084,0.019,0.035,
AENLWVTVW,0.324,22.6,,1.3,,0.204,
AENPWVTVY,0.053,0.027,0.018,,0.224,,
AENTWVTVY,0.166,0.213,0.386,1.45,,0.442,
AEPLWVTVY,0.096,0.31,,1.73,2.48,,
AEVLWVTVY,0.39,,1.52,1.55,0.436,,
ATNLWVTVY,,,,,,,IC50 (HLA-B*4501; read-out: B*4501): > 49 µM; IC50 (HLA-B*4403; read-out: B*4403): > 43 µM; IC50 (HLA-B*1801; read-out: B*1801): 17.6 µM; IC50 (HLA-B*4001; read-out: B*4001): 0.487 µM; IC50 (HLA-B*4002; read-out: B*4002): > 155 µM
GEISPYPSL,0.293,19.4,,0.024,0.0018,,
KENLWVTVY,,0.184,0.308,2.74,0.373,6.22,
LWQLNGRLEYTLKDR,,,,,,,IC50 (HLA-DR DRB1*0802 (DR8)): 43.3 µM; IC50 (HLA-DR DRB1*1302 (DR13)): 2.45 µM; IC50 (HLA-DR DRB3*0101 (DR52)): 4.4 µM; IC50 (HLA-DR DRB1*0701 (DR7)): 20.2 µM; IC50 (HLA-B*4403; B*4403): 0.00011 µM; IC50 (HLA-DR DRB1*1101 (DR11)): 6.52 µM; IC50 (HLA-DR DRB1*0405 (DR4)): 0.094 µM; IC50 (HLA-DR DRB1*0301 (DR3)): 0.511 µM; IC50 (HLA-DR DRB1*0401 (DR4)): 0.757 µM; IC50 (HLA-DR DRB1*0901 (DR9)): 16.6 µM; IC50 (HLA-DR DRB5*0101 (DR51)): 6 µM; IC50 (HLA-DR DRB1*0101 (DR1)): 0.698 µM; IC50 (HLA-DR DRB1*1501 (DR15)): 0.853 µM
NENLWVTVY,0.224,0.038,0.453,> 72.7,11.8,,
QEILDLWVY,,,,,,,IC50 (HLA-B*4501; B*4501): 6.26 µM; IC50 (HLA-B*1801; B*1801): 0.052 µM; IC50 (HLA-B*4402; B*4402): 0.264 µM; IC50 (HLA-B*4001; B*4001): 0.74 µM; IC50 (HLA-B*4002; B*4002): 4.52 µM
SEAIHTFQY,,,,,,,IC50 (HLA-B*4403; B*4403): 0.016 µM; IC50 (HLA-B*1801; B*1801): 0.025 µM; IC50 (HLA-B*4402; B*4402): 0.018 µM; IC50 (HLA-B*4001; B*4001): 2.9 µM; IC50 (HLA-B*4002; B*4002): 1.8 µM
TEPAAVGVGAV,,,,,,,IC50 (HLA-B*4501; B*4501): 8.24 µM; IC50 (HLA-B*4403; B*4403): 0.459 µM; IC50 (HLA-B*1801; B*1801): > 8.12 µM; IC50 (HLA-B*4001; B*4001): 0.93 µM
YEDLRVLSF,,0.02,0.024,0.067,0.071,18.7,
